For one data set, the system named is Phytophthora infestans. In kind it is in vivo. As to conditions: tomato plants, protective spray, active ingredient concentration 100 ppm, evaluation 7 days after inoculation; 0% = control, 100% = no infection.
The conditions of data set [1]: for logp [a]: pH 2.7; for logp [b]: pH 7.8.
The test system of another data set is Plasmopara viticola. As to the kind of experiment: Plasmopara test (grapevine)/protective. In kind it is in vivo. The conditions noted are these: grapevine young plants, protective spray, active ingredient concentration 10 ppm, evaluation 6 days after inoculation; 0% = control, 100% = no infection. As for the experimental part: Plasmopara Test (Grapevine)/Protective
To produce an appropriate active ingredient formulation, 1 part by weight of active ingredient is mixed with the specified amounts of solvent and emulsifier, and the concentrate is diluted with water to the desired concentration.
To test for protective efficacy, young plants are sprayed with the active ingredient formulation at the stated application rate. After the spray coating has dried on, the plants are inoculated with an aqueous spore suspension of Plasmopara viticola and then remain in an incubation cabin at approx. 20° C. and 100% relative air humidity for 1 day. Subsequently, the plants are placed in a greenhouse at approx. 21° C. and approx. 90% air humidity for 4 days. The plants are then moistened and placed in an incubation cabin for 1 day.
Evaluation follows 6 days after the inoculation. 0% means an efficacy which corresponds to that of the control, whereas an efficacy of 100% means that no infection is observed.
In this test, the following inventive compounds show, at an active ingredient concentration of 10 ppm, an efficacy of 70% or more: […]

The text below walks through data of patent US9930890B2 (priority 2010, dated 2018).

On to `CCON=Cc1ccccc1C1CC(c2csc(C3CCN(C(=O)Cn4nc(C(F)(F)F)cc4C)CC3)n2)=NO1` (mixture of isomers) [I-29], for which the Eff. % in the data set with Phytophthora infestans turned out to be 100%; in the data set with Plasmopara viticola it was 90%. The “logp [a]” value in data set [1] was 4[a].

`CON=Cc1ccccc1C1CC(c2csc(C3CCN(C(=O)Cn4nc(C(F)(F)F)cc4C)CC3)n2)=NO1` (mixture of isomers) [I-34]: the Eff. % is recorded as 100% with Phytophthora infestans and 87% in the data set with Plasmopara viticola. Further, in data set [1], the “logp [a]” value is 3.7[a].

The compound `CON=Cc1cccc(F)c1C1CC(c2csc(C3CCN(C(=O)Cn4nc(C(F)(F)F)cc4C)CC3)n2)=NO1` (mixture of isomers) [I-118] had an Eff. % with Phytophthora infestans of 95%. For the same compound, in data set [1], the “logp [a]” value is 3.61[a], and the “logp [b]” value was 3.49[b]. For the same compound, the Eff. % in the data set with Plasmopara viticola turned out to be 100%.

On to `C#CCOCc1ccccc1C1CC(c2csc(C3CCN(C(=O)Cn4nc(C(F)(F)F)cc4C)CC3)n2)=NO1` (racemic) [I-46], for which the Eff. % in the data set with Phytophthora infestans and in the data set with Plasmopara viticola was 94% throughout. Also, the “logp [a]” value in data set [1] is 3.43[a].

Consider `CC(=O)OCc1ccccc1C1CC(c2csc(C3CCN(C(=O)Cn4nc(C(F)(F)F)cc4C)CC3)n2)=NO1` (racemic) [I-47], for which the Eff. % in the data set on Phytophthora infestans is on record as 94%; with Plasmopara viticola, 90%. For the same compound, the “logp [a]” value in data set [1] was 3.31[a].

For `C#CCOCc1ccccc1C1CC(c2csc(C3CCN(C(=O)Cn4nc(C(F)F)cc4C(F)F)CC3)n2)=NO1` (racemic) [I-53], the Eff. % in the data set with Phytophthora infestans was found to be 94%; with Plasmopara viticola it was 96%. For the same compound, the “logp [a]” value in data set [1] was 3.31[a].

In the data set with Phytophthora infestans, `Cc1ccc(Cl)cc1NC(=O)N1CCC(c2nc(C3=NOC(c4c(Cl)cccc4OS(C)(=O)=O)C3)cs2)CC1` (racemic) [I-54] returned an Eff. % of 94%. In addition, in data set [1], the “logp [a]” value is 3.54[a], and the “logp [b]” value is 3.43[b]. This compound also yielded an Eff. % in the data set on Plasmopara viticola of 100%.

`CC(=O)OCc1ccccc1C1CC(c2csc(C3CCN(C(=O)Cn4nc(C(F)F)cc4C(F)F)CC3)n2)=NO1` (racemic) [I-55]: the figures for the Eff. % in the data set on Phytophthora infestans and with Plasmopara viticola were 94% and 92%, respectively. For the same compound, the “logp [a]” value in data set [1] is 3.22[a].

Take `COCCS(=O)(=O)Cc1ccccc1C1CC(c2csc(C3CCN(C(=O)Cn4nc(C(F)F)cc4C(F)F)CC3)n2)=NO1` (racemic) [I-57]: the results for the Eff. % in the data set on Phytophthora infestans and in the data set on Plasmopara viticola were 94% and 90%, respectively. For the same compound, the “logp [a]” value in data set [1] is 2.74[a].

Consider `CC(=NO)c1ccccc1C1CC(c2csc(C3CCN(C(=O)Cn4nc(C(F)(F)F)cc4C)CC3)n2)=NO1` (centres unmarked) [I-40, 1-[4-(4-{5-[2-(N-Hydroxyethanimidoyl)phenyl]-4,5-dihydro-1,2-phenyloxazol-3-yl}-1,3-thiazol-2-yl)piperidin-1-yl]-2-[5-methyl-3-(trifluoromethyl)-1H-pyrazol-1-yl]ethanone], for which the values for the Eff. % with Phytophthora infestans and with Plasmopara viticola were 100% and 90%, respectively. The “logp [a]” value in data set [1] is 2.92[a].

In the data set with Phytophthora infestans, `N#CCOc1ccccc1C1CC(c2csc(C3CCN(C(=O)Cn4nc(C(F)F)cc4C(F)F)CC3)n2)=NO1` (centres unmarked) [I-63] gave an Eff. % of 94%. In data set [1], the “logp [a]” value is 3[a], and the “logp [b]” value is 2.91[b]. In addition, the Eff. % with Plasmopara viticola is 100%.

For `O=C(Cn1nc(C(F)F)cc1C(F)F)N1CCC(c2nc(C3=NOC(c4ccccc4OS(=O)(=O)C4CC4)C3)cs2)CC1` (centres unmarked) [I-64], the Eff. % in the data set with Phytophthora infestans and with Plasmopara viticola was 100% each time. The “logp [a]” value in data set [1] was 3.24[a],. Moreover, the “logp [b]” value in data set [1] was 3.32[b].

Turning to `Cc1ccc(C)c(NC(=O)N2CCC(c3nc(C4=NOC(c5ccccc5OS(C)(=O)=O)C4)cs3)CC2)c1` (centres unmarked) [I-74], in the data set on Phytophthora infestans, the Eff. % was 100%. Also, in data set [1], the “logp [a]” value is 3.08[a], and the “logp [b]” value is 3.03[b]. Moreover, in the data set on Plasmopara viticola, the Eff. % turned out to be 100%.

`Cc1cc(C(F)F)nn1CC(=O)N1CCC(c2nc(C3=NOC(c4ccccc4OCC#N)C3)cs2)CC1` (centres unmarked) [I-76] returned an Eff. % in the data set with Phytophthora infestans of 100%. In data set [1], the “logp [a]” value was 2.7[a], and the “logp [b]” value was 2.62[b]. Further, the Eff. % in the data set on Plasmopara viticola is reported as 93%.

In the data set on Phytophthora infestans, `CCS(=O)(=O)Oc1cccc(C2CC(c3csc(C4CCN(C(=O)Cn5nc(C(F)F)cc5C(F)F)CC4)n3)=NO2)c1` (centres unmarked) [I-77] showed an Eff. % of 98%. Further, in data set [1], the “logp [a]” value was 3.08[a], and the “logp [b]” value is 2.99[b]. For the same compound, the Eff. % with Plasmopara viticola is given as 93%.

`Cc1cc(C(F)(F)F)nn1CC(=O)N1CCC(c2nc(C3=NOC(c4c(Cl)cccc4OCC#N)C3)cs2)CC1` (centres unmarked) [I-78] returned an Eff. % in the data set on Phytophthora infestans of 80%. In data set [1], the “logp [a]” value was 3.31[a], and the “logp [b]” value was 3.23[b]. In the data set on Plasmopara viticola, the Eff. % is listed as 97%.

In the case of `N#CCOc1ccc(C2CC(c3csc(C4CCN(C(=O)Cn5nc(C(F)F)cc5C(F)F)CC4)n3)=NO2)cc1` (centres unmarked) [I-81], the Eff. % was 100% in the data set with Phytophthora infestans and 99% with Plasmopara viticola. The “logp [a]” value in data set [1] was 2.89[a],. The “logp [b]” value in data set [1] was 2.8[b].

`C/C=C/C(=O)Oc1ccccc1C1CC(c2csc(C3CCN(C(=O)Cn4nc(C(F)F)cc4C(F)F)CC3)n2)=NO1` (centres unmarked) [I-82]: the Eff. % with Phytophthora infestans stood at 70%. In addition, in data set [1], the “logp [a]” value was 3.46[a], and the “logp [b]” value was 3.37[b]. In the data set on Plasmopara viticola, this compound came in with an Eff. % of 94%.

With `O=C(Cn1nc(C(F)F)cc1C(F)F)N1CCC(c2nc(C3=NOC(c4cccc(OS(=O)(=O)C5CC5)c4)C3)cs2)CC1` (centres unmarked) [I-83], the Eff. % with Phytophthora infestans is recorded as 98%; in the data set with Plasmopara viticola, 94%. In data set [1], the “logp [a]” value is 3.17[a],. Also, the “logp [b]” value in data set [1] was 3.07[b].

`O=C(Cn1nc(C(F)F)cc1C(F)F)N1CCC(c2nc(C3=NOC(c4cc(F)ccc4OS(=O)(=O)C4CC4)C3)cs2)CC1` (centres unmarked) [I-84]: the Eff. % in the data set with Phytophthora infestans is given as 90%; in the data set with Plasmopara viticola it was 100%. The “logp [a]” value in data set [1] was 3.32[a],. Further, the “logp [b]” value in data set [1] was 3.35[b].

Take `CS(=O)(=O)Oc1c(F)cccc1C1CC(c2csc(C3CCN(C(=O)Cn4nc(C(F)F)cc4C(F)F)CC3)n2)=NO1` (centres unmarked) [I-85]: in the data set on Phytophthora infestans, the Eff. % is listed as 75%. Also, in data set [1], the “logp [a]” value was 2.97[a], and the “logp [b]” value was 2.91[b]. The compound also registered an Eff. % with Plasmopara viticola of 100%.

Compound `Cc1cc(C(F)(F)F)nn1CC(=O)N1CCC(c2nc(C3=NOC(c4c(F)cccc4OCC#N)C3)cs2)CC1` (centres unmarked) [I-86] showed an Eff. % in the data set on Phytophthora infestans of 75%. For the same compound, in data set [1], the “logp [a]” value is 3.05[a], and the “logp [b]” value was 2.94[b]. Further, in the data set on Plasmopara viticola, the Eff. % was 99%.

The compound `N#CCCn1cccc1C1CC(c2csc(C3CCN(C(=O)Cn4nc(C(F)F)cc4C(F)F)CC3)n2)=NO1` (centres unmarked) [I-87] came in with an Eff. % in the data set on Phytophthora infestans of 80%. Besides, in data set [1], the “logp [a]” value was 2.71[a], and the “logp [b]” value was 2.64[b]. The same compound registered an Eff. % in the data set with Plasmopara viticola of 95%.

`CS(=O)(=O)Oc1cccc(Cl)c1C1CC(c2csc(C3CCN(C(=O)Cn4nc(C(F)F)cc4C(F)F)CC3)n2)=NO1` (centres unmarked) [I-102]: in the data set with Phytophthora infestans, the Eff. % was 75%. In addition, in data set [1], the “logp [a]” value is 3.2[a], and the “logp [b]” value was 3.09[b]. In the data set on Plasmopara viticola, this compound displayed an Eff. % of 100%.

Regarding `Cc1cc(C(F)(F)F)nn1CC(=O)N1CCC(c2nc(C3=NOC(c4c(Cl)cccc4OS(C)(=O)=O)C3)cs2)CC1` (centres unmarked) [I-103], the Eff. % in the data set with Phytophthora infestans is given as 80%; in the data set with Plasmopara viticola it was 100%. For the same compound, in data set [1], the “logp [a]” value is 3.28[a],. The “logp [b]” value in data set [1] was 3.2[b].

In the data set on Phytophthora infestans, `O=CNc1ccccc1C1CC(c2csc(C3CCN(C(=O)Cn4nc(C(F)F)cc4C(F)F)CC3)n2)=NO1` (centres unmarked) [I-108] showed an Eff. % of 100%. In data set [1], the “logp [a]” value was 2.42[a], and the “logp [b]” value is 2.32[b]. In the data set with Plasmopara viticola, this compound showed an Eff. % of 93%.

With `CSCOc1ccccc1C1CC(c2csc(C3CCN(C(=O)Cn4nc(C(F)F)cc4C(F)F)CC3)n2)=NO1` (centres unmarked) [I-112], in the data set with Phytophthora infestans, the Eff. % was 94%. In data set [1], the “logp [a]” value is 3.49[a], and the “logp [b]” value is 3.56[b]. The Eff. % in the data set on Plasmopara viticola stood at 100%.

Regarding `N#CCOc1cccc(F)c1C1CC(c2csc(C3CCN(C(=O)Cn4nc(C(F)F)cc4C(F)F)CC3)n2)=NO1` (centres unmarked) [I-113], the Eff. % is recorded as 85% with Phytophthora infestans and 100% in the data set with Plasmopara viticola. For the same compound, the “logp [a]” value in data set [1] was 2.87[a],. Further, in data set [1], the “logp [b]” value is 2.88[b].

In the data set with Phytophthora infestans, `Cc1cc(C(F)(F)F)nn1CC(=O)N1CCC(c2nc(C3=NOC(c4cccc(F)c4OS(=O)(=O)C4CC4)C3)cs2)CC1` (centres unmarked) [I-114] showed an Eff. % of 94%. Besides, in data set [1], the “logp [a]” value was 3.43[a], and the “logp [b]” value was 3.42[b]. This compound also displayed an Eff. % in the data set with Plasmopara viticola of 100%.

On to `O=C(Cn1nc(C(F)F)cc1C(F)F)N1CCC(c2nc(C3=NOC(c4ccccc4OS(=O)(=O)C(F)(F)F)C3)cs2)CC1` (centres unmarked) [I-115], for which, in the data set with Phytophthora infestans, the Eff. % is 88%. In data set [1], the “logp [a]” value is 3.92[a], and the “logp [b]” value was 3.92[b]. The same compound came in with an Eff. % in the data set with Plasmopara viticola of 100%.

In the data set with Phytophthora infestans, `C=CC(=O)Oc1ccccc1C1CC(c2csc(C3CCN(C(=O)Cn4nc(C(F)F)cc4C(F)F)CC3)n2)=NO1` (centres unmarked) [I-116] registered an Eff. % of 98%. In data set [1], the “logp [a]” value is 3.21[a], and the “logp [b]” value was 3.15[b]. In the data set with Plasmopara viticola, the Eff. % is 100%.
